Measurements from the RepoRT retention time repository (doi:10.1007/s00216-021-03828-0).

Assays:
Settings in all cases: stereoisomer not certain
[1] = RP, Merck Supelco Ascentis Express C18, 100 × 2.1 mm, 2 µm, 39 °C, 0.3 mL/min, estimated dead time 0.73 min; A: water + 0.1% formic acid, pH 3; B: acetonitrile + 0.1% formic acid, pH 3; gradient (min/%B) 0/5 2/5 17/99.9 20/99.9
[2] = RP, Merck Supelco Ascentis Express C18, 100 × 2.1 mm, 2 µm, 40 °C, 0.4 mL/min, estimated dead time 0.55 min; A: water + 0.1% formic acid, pH 3; B: acetonitrile + 0.1% formic acid, pH 3; gradient (min/%B) 0/5 2/5 17/99.9 20/99.9
[3] = RP, Merck Supelco Ascentis Express C18, 100 × 2.1 mm, 2 µm, 40 °C, 0.2 mL/min, estimated dead time 1.1 min; A: water + 0.1% formic acid, pH 3; B: acetonitrile + 0.1% formic acid, pH 3; gradient (min/%B) 0/5 2/5 17/99.9 20/99.9
[4] = as above; remark: listed apart in the source
[5] = RP, Merck Supelco Ascentis Express C18, 100 × 2.1 mm, 2 µm, 40 °C, 0.4 mL/min, estimated dead time 0.55 min; A: water + 0.1% formic acid, pH 3; B: acetonitrile + 0.1% formic acid, pH 3; gradient (min/%B) 0/5 2/5 17/99.9 20/99.9; remark: listed apart in the source
[6] = RP, Merck Supelco Ascentis Express C18, 100 × 2.1 mm, 2 µm, 40 °C, 0.35 mL/min, estimated dead time 0.63 min; A: water + 0.1% formic acid, pH 3; B: acetonitrile + 0.1% formic acid, pH 3; gradient (min/%B) 0/5 2/5 17/99.9 20/99.9
[7] = RP, Merck Supelco Ascentis Express C18, 100 × 2.1 mm, 2 µm, 40 °C, 0.25 mL/min, estimated dead time 0.88 min; A: water + 0.1% formic acid, pH 3; B: acetonitrile + 0.1% formic acid, pH 3; gradient (min/%B) 0/5 2/5 17/99.9 20/99.9

SMILES	LC retention time [1] [min]	LC retention time [2] [min]	LC retention time [3] [min]	LC retention time [4] [min]	LC retention time [5] [min]	LC retention time [6] [min]	LC retention time [7] [min]
CC12CCC(=O)C=C1CCC1C2C(O)CC2(C)C1CCC2(O)C(=O)CO (stereo not drawn) [CORTISOL]	7.17	6.65	8.03	8.04	6.69	6.88	7.53
CC1NC(=O)NC1CCCCCC(=O)O (stereo not drawn) [DETHIOBIOTIN]	5.15	4.54	5.92	5.96	4.58	4.81	5.43
O=C(O)CCCC(=O)C(=O)O [OXOADIPATE]	–	0.707	–	1.48	0.667	0.833	–
Cc1cc2nc[nH]c2cc1C [5,6 DIMETHYLBENZIMIDAZOLE]	4.28	3.76	5.17	5.16	3.79	4	4.67
O=C(C=Cc1ccc(O)c(O)c1)OC(Cc1ccc(O)c(O)c1)C(=O)O (stereo not drawn) [ROSMARINATE]	6.1	5.6	6.88	6.9	5.62	5.82	6.41
Cc1cc2nc3[nH]c(=O)[nH]c(=O)c3nc2cc1C [LUMICHROME]	6.03	5.5	6.91	6.93	5.54	5.74	6.4
CC(=O)NC(Cc1ccccc1)C(=O)O (stereo not drawn) [N-ACETYLPHENYLALANINE]	5.37	4.78	6.31	6.32	4.82	5.04	5.77
CCCCCCCCC=CCCCCCCCC(=O)OCC(O)CO (stereo not drawn) [OLEOYL-GLYCEROL]	15.9	15.1	17.3	17.3	15.1	15.5	16.5
NC(=O)c1ccccc1O [SALICYLAMIDE]	4.72	4.02	5.82	5.82	4.05	4.34	5.19
CCCCCCCCCCCCCCCCC(=O)O [HEPTADECANOATE]	–	16.3	–	18.5	16.4	16.7	17.7
O=C(O)c1ccccc1[O-] [SALICYLATE]	4.28	3.59	5.31	5.3	3.62	3.9	4.72
CC(O)(CCO)CC(=O)[O-] (stereo not drawn) [MEVALONATE]	–	0.73	1.57	1.55	0.72	0.863	1.2
CC(CCC(=O)O)C1CCC2C3C(O)CC4CC(O)CCC4(C)C3CCC12C (stereo not drawn) [URSODEOXYCHOLATE]	–	10.5	–	12.2	–	10.8	–
CCCCCCCCC=CCCCCCCCC(=O)O [ELAIDATE]	16.8	16	18.1	18.2	16.1	16.4	–
O=C([O-])Cc1ccccc1 [PHENYLACETATE]	4.5	3.93	–	4.08	3.95	4.56	3.45
NCC(=O)CCC(=O)O [5-AMINOLEVULINATE]	1.01	0.74	1.53	1.51	0.737	0.853	–
COC(=O)Cc1c[nH]c2ccccc12 [INDOLE-3-METHYL ACETATE]	8.12	8.4	–	10.2	7.46	8.75	8.62
C=C(CC(=O)O)C(=O)O [ITACONATE]	–	1.14	2.46	2.44	1.21	1.35	–
CCC=CCC=CCC=CCC=CCC=CCC=CCCC(=O)O [DOCOSAHEXAENOATE]	–	14.5	–	16.5	14.5	14.8	15.8
CC(C(=O)O)C(=O)O [METHYLMALONATE]	–	0.807	–	1.71	0.863	0.957	1.37
CCC(C)C(=O)C(=O)O (stereo not drawn) [3-METHYL-2-OXOVALERATE]	–	2.54	–	4.64	–	2.96	–

SMILES	LC retention time [1] [min]	LC retention time [2] [min]	LC retention time [3] [min]	LC retention time [4] [min]	LC retention time [5] [min]	LC retention time [6] [min]	LC retention time [7] [min]
CCCCCCCCCCCCCCCCCC(=O)[O-] [STEARATE]	–	16.9	–	19.1	16.9	17.2	18.3
O=C(O)CCCCC(=O)O [ADIPATE]	–	2.02	–	3.99	2.04	2.33	3.27
COc1cc(C(O)C(=O)O)ccc1O (stereo not drawn) [3-METHOXY-4-HYDROXYMANDELATE]	–	1.04	–	2.12	–	1.21	–
CC(=CC(=O)O)C(=O)O [2-METHYLMALEATE]	–	1.16	2.46	2.44	0.99	1.35	–
CC(CCC(=O)O)C(=O)O (stereo not drawn) [2-METHYLGLUTARATE]	–	2.02	–	3.99	2.05	2.33	3.27
O=Cc1cccc(O)c1 [3-HYDROXYBENZALDEHYDE]	–	3.59	–	5.47	–	3.94	–
O=C(O)C(O)c1ccc(O)c(O)c1 (stereo not drawn) [3,4 DIHYDROXYMANDELATE]	–	0.677	–	1.41	–	0.79	–
C[Se]CCC(N)C(=O)O (stereo not drawn) [SELENOMETHIONINE]	0.887	0.683	1.37	1.37	–	0.763	1.07
OCC(O)c1ccc(O)c(O)c1 (stereo not drawn) [3,4-DIHYDROXYPHENYLGLYCOL]	–	0.663	–	1.39	–	0.783	–
CCCCCC=CCC=CCC=CCCCCC(=O)O [GAMMA-LINOLENATE]	–	14.1	–	16.2	–	14.5	–
OCc1cccc(O)c1 [3-HYDROXYBENZYL ALCOHOL]	–	2.02	–	3.97	–	2.33	–
COC(=O)c1ccc(O)c(OC)c1 [METHYL VANILLATE]	–	3.63	–	5.99	–	3.91	–
O=C(O)Cc1c[nH]c2ccccc12 [INDOLE-3-ACETATE]	6.2	5.56	7.21	–	5.6	5.84	6.63
Cc1cc2nc3c(=O)[nH]c(=O)nc-3n(CC(O)C(O)C(O)COP(=O)(O)OP(=O)(O)OCC3OC(n4cnc5c(N)ncnc54)C(O)C3O)c2cc1C (stereo not drawn) [FAD]	–	3.63	–	4.67	–	3.77	–
CC(C)CC(=O)C(=O)O [KETOLEUCINE]	–	0.77	–	4.65	–	0.88	–
CCCCCCCCCC(C)=O [2-UNDECANONE]	–	8.13	–	9.69	–	8.4	–
Nc1ccccc1C(=O)O [ANTHRANILATE]	–	3.93	–	5.87	–	4.29	–
CC(O)(CC(=O)O)C(=O)O (stereo not drawn) [CITRAMALATE]	–	0.717	–	1.49	0.76	0.86	–
Nc1ccc(C(=O)O)cc1 [4-AMINOBENZOATE]	–	3.93	–	5.87	–	4.3	–
CC1NCCc2cc(O)c(O)cc21 (stereo not drawn) [SALSOLINOL]	–	0.68	–	1.44	–	0.82	–
